This is an account of results in PubChem BioAssay (NCI).

Among the test systems are NCI/ADR-RES ovarian; HS 578T breast; DU-145 prostate; MDA-MB-435.
Common to all, as to test: inhibition of tumour cell growth, NCI panel, 48 h

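Method: 48-hour compound exposure of cells in 96-well plates, five concentrations, linear interpolation of endpoints. At the GI50, growth is halved. Definition used: TGI = concentration required for complete inhibition of growth.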

Consider `COc1ccc(Nc2nnc(-c3cc(O)ccc3O)s2)cc1`, for which the GI50 in the assay on NCI/ADR-RES ovarian was more than 50 µM; in the assay on HS 578T breast, 19.7 µM; with DU-145 prostate it was more than 50 µM; with MDA-MB-435, 9.22 µM. The TGI was more than 50 µM in the assay on NCI/ADR-RES ovarian, more than 50 µM in the assay on HS 578T breast, more than 50 µM in the assay on DU-145 prostate and 19.1 µM in the assay on MDA-MB-435.

As for `COc1cc(-c2cc(-c3cc4c([nH]c5ccccc54)c(-c4cc(OC)c(OC)c(OC)c4)n3)cc(-c3ccccc3)n2)cc(OC)c1OC`, the figures for the GI50 in the assay with NCI/ADR-RES ovarian, in the assay with HS 578T breast and with DU-145 prostate were 3.12 µM, 6.09 µM and 11 µM, respectively. The TGI in the assay on NCI/ADR-RES ovarian is 94.8 µM; with HS 578T breast it was more than 100 µM; in the assay with DU-145 prostate, more than 100 µM.

Turning to `O=C(CSc1nc2ccccc2nc1-c1ccccc1)Nc1ccc(F)cc1`, the GI50 in the assay on NCI/ADR-RES ovarian was 29.9 µM; with HS 578T breast, 28.1 µM; with DU-145 prostate it was 51 µM; in the assay on MDA-MB-435 it was more than 100 µM. For the same compound, the TGI in the assay on NCI/ADR-RES ovarian is more than 100 µM; with HS 578T breast, 63.8 µM; in the assay with DU-145 prostate, more than 100 µM; with MDA-MB-435, more than 100 µM.

As for `COc1c(OC[C@H](O)CN2CCOCC2)ccc2c3n(c(=NC(=O)c4cccnc4C)nc12)CCN3`, the GI50 with NCI/ADR-RES ovarian is more than 50 µM; with HS 578T breast, 0.15 µM; in the assay with DU-145 prostate it was 6.72 µM; in the assay with MDA-MB-435 it was 14.1 µM. The TGI in the assay on NCI/ADR-RES ovarian, with HS 578T breast, in the assay with DU-145 prostate and in the assay on MDA-MB-435 was more than 50 µM throughout.

On to `COc1ccc(-c2nn(-c3ccc(NC(=O)c4ccc(Cl)c(Cl)c4)cc3)cc2-c2ccncc2)cc1Cl`, for which the GI50 was 4.12 µM in the assay with NCI/ADR-RES ovarian, 1.05 µM in the assay with HS 578T breast, more than 50 µM in the assay on DU-145 prostate and 3.97 µM with MDA-MB-435. Also, the TGI in the assay on NCI/ADR-RES ovarian is more than 50 µM; with HS 578T breast it was 3.37 µM; in the assay with DU-145 prostate, more than 50 µM; in the assay with MDA-MB-435 it was more than 50 µM.

With `O=C1/C(=C/c2cccc(Cl)c2Cl)N=C(c2ccccc2)N1C1CC1`, the GI50 in the assay with NCI/ADR-RES ovarian is 11.8 µM; in the assay with HS 578T breast, 16.6 µM; in the assay on DU-145 prostate it was 12.1 µM; in the assay with MDA-MB-435, 11.1 µM. The TGI in the assay on NCI/ADR-RES ovarian was found to be 31.1 µM; in the assay on HS 578T breast, 39.5 µM; in the assay with DU-145 prostate, 29.4 µM; in the assay with MDA-MB-435, 24.1 µM.

Regarding `COc1cc2c3c(n(C)c(=O)c2cc1OC)-c1cc2c(cc1/C3=C\CN)OCO2`, the GI50 with NCI/ADR-RES ovarian was 1.21 µM; in the assay with HS 578T breast it was 34.9 µM; in the assay with DU-145 prostate it was 0.346 µM; with MDA-MB-435, 0.819 µM. In addition, the TGI in the assay on NCI/ADR-RES ovarian was 68.7 µM; in the assay on HS 578T breast, more than 100 µM; in the assay on DU-145 prostate, 37.1 µM; with MDA-MB-435, 33.8 µM.

As to `C[C@@H]1CC[C@@H]2[C@@H]1[C@H](OC(=O)/C=C/c1ccccc1)[C@]1(C3CCCCC3)C[C@@H](OC(=O)CO)[C@@]2(C)O1`, the GI50 was 0.515 µM in the assay with NCI/ADR-RES ovarian, 0.0237 µM in the assay on HS 578T breast, 3.99 µM in the assay with DU-145 prostate and 2.99 µM in the assay with MDA-MB-435. Further, the TGI in the assay with NCI/ADR-RES ovarian is 5.2 µM; in the assay on HS 578T breast, 0.0978 µM; with DU-145 prostate, 14.7 µM; in the assay with MDA-MB-435, 11 µM.

With `Cn1cc(-c2csc(-c3c[nH]c4ccc(F)cc34)n2)c2cnccc21`, the GI50 in the assay on NCI/ADR-RES ovarian is 1.98 µM; with HS 578T breast, 2.26 µM; with DU-145 prostate, 1.8 µM; with MDA-MB-435 it was 1.85 µM. Also, the TGI was 3.98 µM in the assay on NCI/ADR-RES ovarian, 5.08 µM in the assay on HS 578T breast, 3.28 µM in the assay with DU-145 prostate and 3.31 µM with MDA-MB-435.

Turning to `[Cl][Hg][c]1cc[c]([Hg][Cl])o1`, the GI50 in the assay with NCI/ADR-RES ovarian is 8.25 µM; in the assay on HS 578T breast, 3.71 µM; in the assay on DU-145 prostate it was 3.81 µM; in the assay with MDA-MB-435 it was 3.4 µM. Moreover, the TGI in the assay with NCI/ADR-RES ovarian was more than 100 µM; in the assay with HS 578T breast it was more than 100 µM; in the assay with DU-145 prostate it was 16.1 µM; with MDA-MB-435, 14.4 µM.

Turning to `Cc1ncc(C(=O)Nc2ccc(CN3CCN(C)CC3)c(C(F)(F)F)c2)cc1C#Cc1cnc(N)c2ccncc12`, the GI50 with NCI/ADR-RES ovarian is 1.61 µM; in the assay on HS 578T breast, 0.984 µM; in the assay with DU-145 prostate, 1.1 µM; in the assay with MDA-MB-435 it was 1.43 µM. Also, the TGI with NCI/ADR-RES ovarian came out at 5.47 µM; with HS 578T breast, 4.65 µM; in the assay with DU-145 prostate it was 3.27 µM; in the assay on MDA-MB-435, 2.86 µM.

Regarding `Cc1nn(-c2ccc(Cl)cc2)c2nc3c(nc12)C(=O)c1ccccc1-3`, the GI50 was more than 100 µM in the assay on NCI/ADR-RES ovarian, 15.7 µM with HS 578T breast, more than 100 µM with DU-145 prostate and more than 100 µM in the assay with MDA-MB-435. Besides, the TGI in the assay with NCI/ADR-RES ovarian, in the assay on HS 578T breast, in the assay on DU-145 prostate and with MDA-MB-435 was more than 100 µM in each case.

As for `C=CCCCCOc1ccccc1-c1cnc(OCCCCC=C)n1C`, the GI50 in the assay on NCI/ADR-RES ovarian is 2.29 µM; in the assay with HS 578T breast, 4.13 µM; in the assay with DU-145 prostate, 5.68 µM; in the assay with MDA-MB-435, 2.08 µM. In addition, the TGI was 5.96 µM in the assay on NCI/ADR-RES ovarian, 23.7 µM in the assay on HS 578T breast, 22.3 µM in the assay with DU-145 prostate and 5.22 µM with MDA-MB-435.

Take `Oc1cccnc1[Se]`: the TGI in the assay on NCI/ADR-RES ovarian, in the assay with HS 578T breast, in the assay on DU-145 prostate and in the assay with MDA-MB-435 was more than 100 µM each time.

Take `O=C(c1ccccc1)c1cc2ccccc2o1`: the GI50 in the assay with NCI/ADR-RES ovarian is 77.4 µM; with HS 578T breast, 37.5 µM; with DU-145 prostate it was 73.6 µM; in the assay with MDA-MB-435, more than 100 µM. The TGI in the assay on NCI/ADR-RES ovarian, with HS 578T breast, with DU-145 prostate and with MDA-MB-435 was more than 100 µM throughout.

`CC(C)Oc1ccc2cc(-c3nn(CC4CCNCC4)c4ncnc(N)c34)ccc2c1`: the GI50 is 6.23 µM in the assay on NCI/ADR-RES ovarian, 9.4 µM with HS 578T breast, 14.9 µM in the assay on DU-145 prostate and 3.86 µM with MDA-MB-435. Also, the TGI was 19.6 µM with NCI/ADR-RES ovarian, 32.2 µM in the assay on HS 578T breast, 28.4 µM with DU-145 prostate and 14.6 µM in the assay on MDA-MB-435.
